Source: the NIST ThermoML archive (doi:10.1021/je100143k)
Numbers after ± are expanded uncertainties.

Settings: Liquid, Ebulliometric method (Recirculating still)

SMILES | vapor or sublimation pressure (263.15 K) [kPa] | vapor or sublimation pressure (268.15 K) [kPa] | vapor or sublimation pressure (278.15 K) [kPa] | vapor or sublimation pressure (288.15 K) [kPa]
FC(F)C(F)F [1,1,2,2-tetrafluoroethane] | 155 ± 10 | 189 ± 10 | 276 ± 10 | 386 ± 10
CCF [fluoroethane] | 311 ± 10 | 372 ± 10 | 517 ± 10 | 700 ± 10
